“And” between values parts separate entries of the source, which are not always exact repeats. Identical values can stand only once.
Experiments:
[1] = biological target: T1, bradykinin type 2 (BK2) receptors (Rattus norvegicus, UniProt P25023); experiment: standard rat uterus pA2 assay (in vitro B2 antagonist activity); details: for activity in rat uterus functional tissue assay: summary of Table 1
T1 construct: Uterine horns were removed, placed under a 1 g resting tension in 4 mL tissue baths; from tissue; host or cells: rat uterine horns (Sprague-Dawley, stilbesterol-pretreated)
T1 sequence (P25023 1-396): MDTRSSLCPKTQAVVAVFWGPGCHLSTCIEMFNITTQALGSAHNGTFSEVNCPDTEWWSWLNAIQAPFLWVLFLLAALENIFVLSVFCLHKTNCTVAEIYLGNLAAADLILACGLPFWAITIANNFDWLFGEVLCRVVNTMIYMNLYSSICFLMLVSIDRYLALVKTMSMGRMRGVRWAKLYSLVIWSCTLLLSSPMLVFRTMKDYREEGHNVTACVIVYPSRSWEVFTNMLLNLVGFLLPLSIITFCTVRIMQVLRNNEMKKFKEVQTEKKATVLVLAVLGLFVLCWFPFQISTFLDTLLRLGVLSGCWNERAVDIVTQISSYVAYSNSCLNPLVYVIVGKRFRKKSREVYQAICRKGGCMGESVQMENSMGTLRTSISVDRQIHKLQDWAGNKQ
Protocol: The standard rat uterus pA2 assay was conducted as follows:
Female Sprague-Dawley rats (200-250 g) were pretreated with stilbesterol (100 μg/kg) and killed 18 hours later by a blow on the head and exsanguinated. Uterine horns were removed, placed under a 1 g resting tension in 4 mL tissue baths containing De Jalon's solution at 31° C. and aerated. […] Antagonist potency was calculated according to the method of Arunlakshana and Schild (Arunlakshana, O., Schild, H. O., Br. J. Pharmacology 14 48-58 (1959)). […] The difference in pD2 values compared to concurrent control reflected the "percentage recovery" of agonist response.

BK2 receptors = biological target: T2, BK2 receptors (Oryctolagus cuniculus, UniProt Q28642); experiment: rabbit blood pressure BK2 ED50; type: in vivo
T2 construct: from tissue; host or cells: live anesthetized New Zealand White rabbit (vascular system)
T2 sequence (Q28642 1-367): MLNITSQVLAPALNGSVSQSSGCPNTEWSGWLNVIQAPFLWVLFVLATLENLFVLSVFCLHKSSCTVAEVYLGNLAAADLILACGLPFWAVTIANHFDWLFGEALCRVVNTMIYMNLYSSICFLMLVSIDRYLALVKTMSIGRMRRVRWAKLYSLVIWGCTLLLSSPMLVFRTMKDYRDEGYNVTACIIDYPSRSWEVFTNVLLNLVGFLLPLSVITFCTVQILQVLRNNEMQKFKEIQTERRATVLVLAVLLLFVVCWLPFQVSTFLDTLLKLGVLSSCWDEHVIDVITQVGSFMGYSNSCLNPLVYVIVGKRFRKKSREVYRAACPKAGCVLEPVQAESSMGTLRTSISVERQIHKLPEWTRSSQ
Excerpt: (§1) Male New Zealand White rabbits were anesthetized with pentobarbital and femoral arteries were cannulated for the recording of blood pressure. Cannulae were placed in the femoral veins for the bolus injection or continuous infusion of compounds. […] Following an equilibration period the specific experimental procedure was started.

BK1 receptors = biological target: T3, BK1 receptors (Oryctolagus cuniculus, UniProt P48748); experiment: LPS-treated rabbit blood pressure BK1 ED50; type: in vivo; details: for BK1 ED50: LPS-treated rabbit, i.v. infusion
T3 construct: upregulation of BK1 receptors in the vascular system; from tissue; host or cells: live anesthetized LPS-pretreated New Zealand White rabbit (vascular system)
T3 sequence (P48748 1-352): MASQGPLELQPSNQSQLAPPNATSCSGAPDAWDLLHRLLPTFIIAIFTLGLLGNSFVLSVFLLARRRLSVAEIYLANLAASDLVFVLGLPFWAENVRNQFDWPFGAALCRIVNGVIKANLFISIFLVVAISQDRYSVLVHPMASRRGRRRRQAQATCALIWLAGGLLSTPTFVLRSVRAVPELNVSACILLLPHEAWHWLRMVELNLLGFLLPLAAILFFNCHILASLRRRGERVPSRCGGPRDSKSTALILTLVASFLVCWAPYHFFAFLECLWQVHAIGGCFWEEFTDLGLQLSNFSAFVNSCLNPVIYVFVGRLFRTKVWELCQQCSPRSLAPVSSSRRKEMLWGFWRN
Protocol: as §1
Stimulation of both pre-existing BK2 and induced BK1, receptors produces hypotension. […] Both agonists were tested in the absence and then in the presence of increasing doses of CP-0597 (1, 3, and 10 μg/kg/min).

[2] = system: blood pressure responses to vasoactive agents; experiment: selectivity of intravenous CP-0597, rabbit blood pressure; type: in vivo; details: 0.1 μg/kg/min i.v.; for responses to the other vasoactive agents after antagonist: acetylcholine, norepinephrine, substance p, angiotensin, angiotensin II
Excerpt: as §1

response to Bradykinin [3] = experiment: duration of action of intravenously infused CP-0597, rabbit blood pressure; type: in vivo; details: one hour (60 min) after 0.1 μg/kg/min infusion stopped
Protocol: as §1
CP-0597 (0.1 μg/kg/min) was intravenously infused for the above mentioned selectivity experiments.

[4] = system: blood pressure responses to vasoactive agents; experiment: selectivity of subcutaneous CP-0597, rat blood pressure; type: in vivo; details: 1.0 mg/kg s.c., thirty minutes after injection
Protocol: (§2) Male Sprague-Dawley rats were anesthetized with pentobarbital and femoral arteries were cannulated for the recording of blood pressure. Both femoral veins in each animal were cannulated for the administration of test compounds. […] Following an equilibration period the specific experimental procedure was started.
Animals were then treated with CP-0597 (1.0 mg/kg s.c.). Thirty minutes after the s.c. injection each vasoactive agent was retested and compared to pre-antagonist responses.

response to Bradykinin [5] = experiment: duration of action of i.v. bolus injections of CP-0597, rat blood pressure; type: in vivo
Protocol: as §2
At 3 μg/kg the response was ca. 50% inhibited and had returned to control by 30 minutes. At […] and 30 μg/kg the response was 100% inhibited with a 50% return to control level by 60 minutes and full recovery of response by 90 minutes.

response to Bradykinin [6] = experiment: duration of action of subcutaneous CP-0597, rat blood pressure; type: in vivo; details: for inhibition of responses to Bradykinin, duration of action (s.c.): rat
Protocol: as §2
Animals were then given subcutaneous injections of CP-0597 (1 and 3 mg/kg s.c.). […] At 1 mg/kg s.c. the responses were still 100% inhibited at 3 hours post injection. At 3 mg/kg s.c. the responses were still 100% inhibited at 5 hours post injection.

guinea pig ileum = experiment: activity on guinea pig ileum tissue
[7] = i.v. bolus 10 μg/kg (text: 20%; Table 3: 10 μg/kg/min)
[8] = i.v. bolus 30 μg/kg (Table 3: 30 μg/kg/min)

D-Arg-Arg-Pro-Hyp-Gly-Thi-Ser-D-Tic-NChg-Arg [Compound 5]
% Recovery ([1]; recovery of agonist response after washing 40 minutes following highest antagonist concentration): 71%
activity in rat uterus functional tissue assay [1]: highly potent antagonists
ED50 blocking bradykinin at BK2 receptors in live rabbits (BK2 receptors): 0.051 µg/kg/min
BK2 ED50 (BK2 receptors; i.v. infusion): 29.2 pmol/kg/min
BK1 ED50 (BK1 receptors): 1.7 nmol/kg/min
BK1 ED50 (BK1 receptors; des-Arg9 Bradykinin, listed as CP-0597): 2.9 ± 0.92 µg/kg/min and 2.9 µg/kg/min
BK1 blocking activity in live rabbits (BK1 receptors; rabbit): 2.9 µg/kg/min
response to Bradykinin after antagonist [2]: antagonized
responses to the other vasoactive agents after antagonist [2]: not affected
responses to the other vasoactive agents after antagonist ([2]; listed as CP-0597): unaffected
inhibition of the response to Bradykinin, duration of action (i.v. infusion) (response to Bradykinin [3]): 100%
response to Bradykinin after antagonist [4]: antagonized
responses to the other vasoactive agents after antagonist ([4]; 1 mg/kg): not affected
responses to the other vasoactive agents after antagonist ([4]; listed as CP-0597, 1 mg/kg): unaffected
time of return to control (100% recovery) (response to Bradykinin [5]; i.v. bolus 3 μg/kg (Table 3: 3.0 μg/kg/min)): ≤ 30 min
inhibition of response to Bradykinin (response to Bradykinin [5]; [7]): 100%
time of 50% recovery (response to Bradykinin [5]; [7]): ≤ 60 min
time of 100% recovery (response to Bradykinin [5]; [7]): ≤ 90 min
inhibition of response to Bradykinin (response to Bradykinin [5]; [8]): 100%
time of 50% recovery (response to Bradykinin [5]; [8]): ≤ 60 min
time of 100% recovery (response to Bradykinin [5]; [8]): ≤ 90 min
inhibition of responses to Bradykinin, duration of action (s.c.) (response to Bradykinin [6]; 1 mg/kg s.c., 3 hours post injection): 100%
inhibition of responses to Bradykinin, duration of action (s.c.) (response to Bradykinin [6]; 3 mg/kg s.c., 5 hours post injection): 100%
blockage of agonist effect (response to Bradykinin [6]; up to 5 hours after a subcutaneous dose (3 mg/Kg, rat)): complete blockage

D-Arg-Arg-Pro-Hyp-Gly-Thi-Ser-D-Tic-NMch-Arg [Compound 12]
B2 pA2 (Rat Uterus) ([1]; rat uterus, antagonist preincubated for 15 minutes): Agonist
activity in rat uterus functional tissue assay [1]: agonists
activity on guinea pig ileum (guinea pig ileum): antagonist activity

Source: patent US5700779A (Cortech, Inc., priority 1996, dated 1997)
